Source: US20070037800A1, “Method of treating neurological disorders using clotrimazole and derivatives thereof” (EnVivo Pharmaceuticals, Inc., priority 2005, published 2007)
Values joined by “and” are separate entries in the source; they are usually repeats but may differ in a detail not shown here. Equal values may be shown once.

What was measured:
Type in all cases: in vivo
[1] = system: R6/2 transgenic mice; test: Body weight in R6/2 transgenic mouse model of Huntington's disease
Method: (§1) The rotarod test and body weight measurements were used to assess the therapeutic effects of clotrimazole in R6/2 transgenic mice. R6/2 and WT male mice at 4 weeks of age were trained 3 consecutive days on the accelerating rotarod. Each training day consisted of four sessions. After the training was complete, the animals were reassigned to new groups to create statistically homogenous cohorts. At 5 weeks of age, animals (n=10 per group) were dosed twice daily, intraperitoneally (IP) with clotrimazole at either 2 mg/kg or 10 mg/kg (equal to 4 and 20 mg/kg per day). Rotarod testing was performed at 6, 8, 10, and 12 weeks of age as described above. Body weights were collected every week.

[2] = system: HD model flies (elav-GAL4 UAS-htt128Q); test: Assay of locomotor activity (climbing speed) using the transgenic Drosophila HD model; set-up: Early Speed Effect Size, Summary / Late Speed Effect Size, Summary / Early Speed Effect Size / Late Speed Effect Size / Early Speed Adj Value / Late Speed Adj Value / Early Speed Effect Size, combined campaigns / Late Speed Effect Size, combined campaigns: unit not given here; details: for Early Speed Effect Size, combined campaigns / Early Speed Percent TSA, combined campaigns / Early Speed Effect Size / Early Speed Adj Value / Early Speed Percent TSA: days 1 to 7; for Early Speed Effect Size, combined campaigns / Early Speed Percent TSA, combined campaigns / Late Speed Effect Size, combined campaigns / Late Speed Percent TSA, combined campaigns: drawing 84; for Late Speed Effect Size, combined campaigns / Late Speed Percent TSA, combined campaigns / Late Speed Percent TSA / Late Speed Adj Value / Late Speed Effect Size: days 8 to 10; for Early Speed Effect Size, Summary / Early Speed Percent TSA, Summary: days 1-7; for Late Speed Effect Size, Summary / Late Speed Percent TSA, Summary: days 8-10; for Early Speed Effect Size: food conc 50 (unit not printed; b38: μM); for Early Speed Effect Size / Late Speed Effect Size: vs DMSO carrier; for Early Speed Effect Size / Early Speed Adj Value / Early Speed Percent TSA / Late Speed Percent TSA / Late Speed Adj Value / Late Speed Effect Size: single campaigns; for Early Speed Percent TSA: effect size as percentage of positive control TSA; for Late Speed Percent TSA: effect size as percentage of TSA
Method: Female “activator” or “driver” flies were engineered to contain the neuronal specific drivers elav-GAL4 or nirvana-GAL4 in a heat shock-hid Y (phs-hidY or HS-hid+ on Y chomosome) background (Starz-Gaiano et al., 2001). The hid gene is a pro-apoptotic gene, which is expressed in this line by a heat inducible promoter. These flies can be heat shocked in bottles twice over 2 days for 2 hours to kill male larvae and thereby produce massive numbers of elav-GAL4 or nirvana-GAL4 virgin females.
For the mass production of males (either UAS-htt128Q[F27B]/UAS-htt128Q[F27B], the disease transgenes were moved into lines that contain an attached X-chromosome with the same phs-hid element (X^XPhs-hidY) used above. In this scheme the hid gene is present only in female flies and therefore is used to produce large numbers of male flies by heat shock. The massive collection of virgin female elav-GAL4 flies are crossed with the massive collection of males that contain the silent disease-transgene. Their progeny, the F1 generation, are the “assay flies” (e.g., elav-GAL4UAS-htt128Q[F27B]). These assay flies are robotically distributed into drugged assay vials.
The HD Drosophila model express exons 1 to 4 of the human huntingtin gene with 128Q repeats in exon 1. The construct was cloned into the Drosophila transformation vector, pUAST. These were then crossed to GAL4 driver lines that direct expression either to the eye (GMR-GAL4 promoter) or to neurons (elav-GAL4 promoter). […] Progressive degeneration of the photoreceptors was observed after several days of adult life. The properties of the HD128Q flies were consistent with those reported by others for two other strains in which exon-1 containing expanded repeats was expressed in the eye (Jackson et al., 1998; Steffan et al., 2001—US20040142859). To test the effects on motor function of the HD mutation, HD128Q lines were examined in which the transgene was expressed in all neurons. Motor function was assayed by tapping flies in a vial to the bottom and measuring the number of flies that are able to climb to a specified height within a specific length of time. When tapped to the bottom of a vial, wild-type flies rapidly climb to the top, where most of them remain. […] The decline in motor performance was progressive, leading to early death. […] The HD128Q model thus has a functional deficit that in its phenotypic and neuropathological characteristics appears to be related to that seen in the human disease. Moreover, as the deficit is quantifiable and reproducible, it is suitable for automated high-throughput screening.
Standard environmental conditions were followed to establish that different metrics detect differences between disease and control flies. A comparison of compound-treated HD flies and untreated HD flies was also included. The positive control compound tested was the Histone Deacetylase (HDAC) inhibitor Trichostatin-A (TSA).
In an assay run (typically corresponding to one day of an entire multi-day assay) the following process was followed. Each tube was dropped onto a surface, causing the flies to fall to the bottom of the tube and be subjected to impact shock stimulation. Their immediate negative geotaxis response to that event was thereafter captured in a 7.5 second movie. For each tube, this step was repeated five times, giving a total of five repeat videos per tube and run. The raw data for each video were analyzed and trajectories following the movements of individual flies in a tube were generated. The method for analyzing fly trajectories is described in published U.S. Patent Application 2004/0076318A1, which is hereby incorporated by reference in its entirety. The trajectories consisted of a list of x- and y-coordinates mapping out the positions of all the flies in the video, as well as measurements of size, orientation, length and width of the flies, with one list entry for every frame from when the fly started moving in one frame until it stopped in another. […]

[3] = system: R6/2 transgenic mice; test: Rotarod test in R6/2 transgenic mouse model of Huntington's disease
Method: as §1

[4] = conc 50, campaigns drawing 83, drawing 85
[5] = conc 100, campaigns drawing 74, drawing 76, drawing 83, drawing 89
[6] = conc 150, campaigns drawing 83, drawing 86, drawing 88, drawing 89
[7] = dose 50, weighted average of campaigns drawing 83, drawing 84 (Table 1)
[8] = dose 100, weighted average of campaigns drawing 74, drawing 76, drawing 83, drawing 84 (Table 1)
[9] = dose 150, weighted average of campaigns drawing 83, drawing 84 (Table 1)
[10] = food conc 50, listed as CLOTRIMAZOLE

SMILES: Clc1ccccc1C(c1ccccc1)(c1ccccc1)n1ccnc1 [clotrimazole]
- Body weight compared to vehicle-treated R6/2 mice ([1]; 4 mg/kg IP-BID, 12 week of age, F test ANOVA): maintained a higher body weight
- Body weight effect ([1]; 20 mg/kg IP-BID, any time point tested): did not have a statistically significant effect
- Weight in vivo ([1]; low dose of 4 mg/kg/day, preliminary data): positively affects
- Early Speed Effect Size, combined campaigns [2, 4]: 0.867
- Early Speed Percent TSA, combined campaigns [2, 4]: 37.7%
- Late Speed Effect Size, combined campaigns [2, 4]: 1.076
- Late Speed Percent TSA, combined campaigns [2, 4]: 36.3%
- Early Speed Effect Size, combined campaigns [2, 5]: 0.89
- Early Speed Percent TSA, combined campaigns [2, 5]: 32%
- Late Speed Effect Size, combined campaigns [2, 5]: 1.372
- Late Speed Percent TSA, combined campaigns [2, 5]: 36.8%
- Early Speed Effect Size, combined campaigns [2, 6]: 1.211
- Early Speed Percent TSA, combined campaigns [2, 6]: 43.8%
- Late Speed Effect Size, combined campaigns [2, 6]: 1.664
- Late Speed Percent TSA, combined campaigns [2, 6]: 42.8%
- Early Speed Effect Size, Summary [2, 7]: 0.8
- Early Speed Percent TSA, Summary [2, 7]: 25.9%
- Late Speed Effect Size, Summary [2, 7]: 1.43
- Late Speed Percent TSA, Summary [2, 7]: 35.7%
- Early Speed Effect Size, Summary [2, 8]: 1.13
- Early Speed Percent TSA, Summary [2, 8]: 39.6%
- Late Speed Effect Size, Summary [2, 8]: 1.42
- Late Speed Percent TSA, Summary [2, 8]: 39.6%
- Early Speed Effect Size, Summary [2, 9]: 1.35
- Early Speed Percent TSA, Summary [2, 9]: 41.6%
- Late Speed Effect Size, Summary [2, 9]: 1.8
- Late Speed Percent TSA, Summary [2, 9]: 42.7%
- Climbing assay, dose dependence ([2]; doses 50, 100, 150 (Table 1)): dose-dependent effect
- Early Speed Effect Size [2]: 0.73 and 0.88
- Early Speed Effect Size ([2]; listed as CLOTRIMAZOLE): 0.725 and 0.882 and 0.932
- Early Speed Adj Value ([2]; food conc 50 (μM)): 11.2 and 10.98 and 10.15
- Early Speed Percent TSA ([2]; food conc 50): 26.3% and 25.4%
- Early Speed Percent TSA [2, 10]: 26.3% and 25.4% and 48.8%
- Late Speed Percent TSA ([2]; food conc 50): 38.8% and 31.5%
- Late Speed Percent TSA [2, 10]: 38.8% and 31.5% and 36.8%
- Late Speed Adj Value ([2]; food conc 50): 6.587 and 5.802 and 6.193
- Late Speed Effect Size ([2]; food conc 50): 1.46 and 1.39
- Late Speed Effect Size [2, 10]: 1.458 and 1.39 and 0.767
- Early Speed Adj Value ([2]; food conc 100 (μM)): 10.12 and 11.32 and 11.4873 and 10.63 and 10.84
- Late Speed Adj Value ([2]; food conc 100): 5.805 and 5.534 and 6.208 and 6.981 and 6.155
- Early Speed Adj Value ([2]; food conc 150 (unit not given)): 11.15 and 11.68 and 10.57 and 10.74 and 11.13
- Late Speed Adj Value ([2]; food conc 150): 6.189 and 6.817 and 5.855 and 5.983 and 6.595
- Effect in Drosophila model of HD ([2]; vs carrier controls, metrics early speed (days 1-7) and late speed (days 8-10)): reproducible positive effects
- Rotarod effect ([3]; 20 mg/kg/day IP-BID, any time point tested (6, 8, 10, 12 weeks of age)): did not have a statistically significant effect
- Rotarod effect vs vehicle-treated R6/2 animals ([3]; at the higher dose as printed, P=0.01 (Wilcoxon test)): statistically-significant effect
- Behavior in vivo (rotarod) ([3]; low dose of 4 mg/kg/day (2 mg/kg IP twice daily), preliminary data): positively affects
